The source of these data is patent US20060269482A1 (priority 2005, published 2006).

Experiment [1] relates to Rb phosphorylation in cells. As to conditions: literature report; cited from earlier work.
The test system of experiment [2] is Rb phosphorylation in human PBMCs. The experiment in a line: Rb phosphorylation in human PBMCs stimulated ex vivo with PMA. The format is cell-based. The method, then:
Approximately 10 mls of blood was collected from five healthy human volunteers into sodium heparin treated Vacutainer blood collection tubes by Employee Health Services. PBMCs were separated using the Lymphocyte Separation Medium (LSM) and protocol supplied by ICN Biomedicals Inc. (Costa Mesa, Calif.). Briefly whole blood was diluted 1:1 with cold HBSS (Hanks Balanced Salt Solution), layered onto the LSM and centrifuged. The band of mononuclear cells above the LSM was collected, transferred to a new tube and washed once with cold HBSS. Cells were resuspended in RPMI 1640, 10% HI-FBS, 2 mM L-glutamine and 0.01 mg/ml Gentamicin Reagent Solution (GIBCO/Invitrogen). […]
PBMCs were collected by transferring the cells, including attached cells and those in suspension, into 50 ml tubes. […] Samples were sonicated on ice for 30 seconds, clarified by centrifugation at 16,000×g for 10 minutes at 4° C. and protein concentrations determined using Non-Interfering Protein Assay Kit (Geno Technology Incorporated, Maplewood, Mo.). […] For Western blotting, total Rb was detected using antibody from Pharmingen (BD Bioscience, San Diego, Calif.) at a dilution of 1:2000. Lysates were analysed by Western blotting for Rb phosphorylation using polyclonal antibodies against phosphorylated serine 795, serine 780, threonine 821 and serine 807/811 in human Rb (FIG. 8). […]

Experiment [3] has as its system Rb phosphorylation in rat PBMCs. The experiment in a line: Rb phosphorylation in rat PBMCs following ex vivo PMA activation. The experiment is classed as cell-based. As to conditions: 300 ng/ml for 24 hours, Western blot. How it is done:
PBMCs are not cycling cells and need to be stimulated with the mitogen PMA to enter the cell cycle.
Blood from three rats at the specified times was pooled (˜10 mls total) and PBMCs were separated using the Lymphocyte Separation Medium (LSM) and protocol supplied by ICN Biomedicals Inc. (Costa Mesa, Calif.). Briefly whole blood was diluted 1:1 with cold HBSS (Hanks Balanced Salt Solution), layered onto the LSM and centrifuged. The layer of mononuclear cells above the LSM was collected, transferred to a new tube and washed once with cold HBSS. Cells were resuspended in RPMI 1640, 10% HI-FBS, 2 mM L-glutamine and 0.01 mg/ml Gentamicin Reagent Solution (GIBCO/Invitrogen). Cells were seeded into T-75 cm^2 flasks at ≦1×10^7 cells in 20 mls medium and stimulated with 300 ng/ml of phorbol 12-myristate 13-acetate (PMA) for 24 hours. […]
PBMCs were collected by transferring the cells, including attached cells and those in suspension, into 50 ml tubes. […] Samples were sonicated on ice for 30 seconds, clarified by centrifugation at 16,000×g for 10 minutes at 4° C. and protein concentrations determined using Non-Interfering Protein Assay Kit (Geno Technology Incorporated, Maplewood, Mo.). […] For Western blotting, total Rb was detected using antibody from Pharmingen (BD Bioscience, San Diego, Calif.) at a dilution of 1:2000. […]
A general note: Immunoblotting shows a protein as a band on a membrane.

Experiment [4] has as its system Rb phosphorylation in tumor xenografts. As to conditions: literature report; cited from earlier work.
In another experiment the test system is phosphorylated Rb. As to conditions: phase 1, in combination with docetaxel, cited from earlier work.

On to `CC(C)(C)c1cnc(CSc2cnc(NC(=O)C3CCNCC3)s2)o1` [BMS-387032], for which the “Rb phosphorylation in cells” value in experiment [1] is “Inhibition of Rb phosphorylation”.
Take `CCCCCCCCCCCCCC(=O)O[C@@H]1[C@@H](C)[C@@]2(O)[C@@H](C=C(CO)C[C@]3(O)C(=O)C(C)=C[C@@H]23)[C@@H]2C(C)(C)[C@]12OC(C)=O` [PMA, phorbol 12-myristate 13-acetate]: the “Phosphorylation at serine 795 and serine 780 in human PBMCs” value in experiment [2] (300 ng/ml, 24, 48 and 72 hours post stimulation) is reported as “not significant until 48-72 hours”. The “Phosphorylation at serine 807/811 and threonine 821 sites in human PBMCs” value in experiment [2] (300 ng/ml, 24 hours post mitogen addition, five donors) was “Significant phosphorylation”. Further, the “Phosphorylated Rb in rat PBMCs after mitogen stimulation” value in experiment [3] is “sufficient for detection of phosphorylated Rb”.
Turning to `CC(=O)c1c(C)c2cnc(Nc3ccc(N4CCNCC4)cn3)nc2n(C2CCCC2)c1=O` [PD 0332991], the “Rb phosphorylation in tumor xenografts” value in experiment [4] was “Inhibition of Rb phosphorylation”. For the same compound, the “Rb phosphorylation in cells” value in experiment [1] is listed as “Inhibition of Rb phosphorylation”.
`CC[C@H](CO)Nc1nc(NCc2ccccc2)c2ncn(C(C)C)c2n1` [CYC 202, r-Roscovitine]: the “Rb phosphorylation in cells” value in experiment [1] is listed as “Inhibition of Rb phosphorylation”.
Take `CN1CC[C@H](c2c(O)cc(O)c3c(=O)cc(-c4ccccc4Cl)oc23)[C@H](O)C1` [flavopiridol]: in the experiment on phosphorylated Rb (6 paired tumors), the “pRb in paired tumors” value was “no significant changes”. Besides, the “pRb in buccal mucosa biopsies post treatment” value in the experiment with phosphorylated Rb (patients with metastatic tumors) was “somewhat decreased”. The “Rb phosphorylation in cells” value in experiment [1] is reported as “Inhibition of Rb phosphorylation”.
